Results on 25 molecules are retold here after ChEMBL document CHEMBL1142956, “Small molecule inhibitors of histone arginine methyltransferases: homology modeling, molecular docking, binding mode analysis, and biological evaluations” (J Med Chem, 2007).

The target in one assay is RmtA (Emericella nidulans, UniProt Q5VLE3). The assay can be described thus: Inhibition of Aspergillus nidulans recombinant GST-RmtA expressed in BL21 cells.
Assay [1] has as its target Protein arginine N-methyltransferase 1 (Homo sapiens, UniProt Q99873). The assay can be described thus: Inhibition of human recombinant GST-PRMT1 expressed in BL21 cells.

`CN(C)c1ccc(/N=N/c2ccc(S(=O)(=O)O)cc2)cc1`: the IC50 on RmtA is 490 µM.
Same read-out and setting: with `O=C1OC2(c3ccc(O)cc3Oc3cc(O)ccc32)c2ccccc21` [FLUORESCEIN] the figure was 123 µM.
In the case of `O=C(O)c1ccccc1-c1c2cc(Br)c(=O)c(Br)c-2oc2c(Br)c(O)c(Br)cc12`, the results for the IC50 (at RmtA; in assay [1]) were 0.18 µM and 1.4 µM, respectively.
Turning to `O=[N+]([O-])c1ccc2c(/N=N/c3cccc4ccccc34)c(O)cc(S(=O)(=O)O)c2c1`, at RmtA, the IC50 was found to be 103 µM.
Still for that read-out and setting: with `Nc1ccc(C(=O)O)c(-c2c3ccc(=O)cc-3oc3cc(O)ccc23)c1` the figure was 710 µM.
With `O=C1NS(=O)(=O)c2ccccc21` [SACCHARIN], the IC50 (at RmtA; in assay [1]) was greater than 510 µM throughout.
As to `Cc1cc(C(=C2C=CC(=N)C=C2)c2ccc(N)cc2)ccc1N` [FUCHSIN, BASIC], the IC50 on RmtA (bl21) worked out at 515 µM.
Turning to `O=C1c2ccccc2C(=O)c2c1ccc(O)c2O` [ATHRAQUINONES A], on RmtA, the IC50 was found to be 1220 µM.
In the case of `O=C1C=CC(=C(c2ccc(O)cc2)c2ccccc2C(=O)O)C=C1`, the IC50 on RmtA was found to be 296 µM; in assay [1], 885 µM.
On to `Nc1cc(S(=O)(=O)O)cc2cc(S(=O)(=O)O)cc(O)c12`, for which the IC50 on RmtA came out at 220 µM.
As to `CC1=CC(=O)C(C(C)C)=C/C1=C(/c1cc(C(C)C)c(O)cc1C)c1ccccc1C(=O)O`, the IC50 (on RmtA; in assay [1]) was greater than 217 µM in each case.
For `O=S(=O)(O)c1cc(O)c2ccc(NC(=S)Nc3ccccc3)cc2c1`, the IC50 at RmtA turned out to be 1360 µM.
On the same count and under the same terms, the result for `O=C(O)c1ccc(Nc2nc(Cl)nc(Cl)n2)cc1-c1c2ccc(=O)cc-2oc2cc(O)ccc12` reads 73 µM; that for `O=C1C=CC(=C(c2ccc(O)cc2)c2ccccc2S(=O)(=O)O)C=C1`, greater than 263 µM; that for `CN(C)c1ccc(/N=N/c2ccccc2C(=O)O)cc1`, 2100 µM.
With `Cc1ccc(C(=O)Nc2ccc(S(=O)(=O)O)c3cc(S(=O)(=O)O)cc(S(=O)(=O)O)c23)cc1NC(=O)c1cccc(NC(=O)Nc2cccc(C(=O)Nc3cc(C(=O)Nc4ccc(S(=O)(=O)O)c5cc(S(=O)(=O)O)cc(S(=O)(=O)O)c45)ccc3C)c2)c1` [SURAMIN], the IC50 at RmtA is 5.9 µM; in assay [1], 18.1 µM.
For `O=C1NC(=O)C(=Nn2c(=O)[nH]c(=O)[nH]c2=O)C(=O)N1`, in that order: greater than 164 µM and greater than 164 µM.
For `O=c1cc2oc3cc(O)c(O)cc3c(-c3ccccc3)c-2cc1O`, the IC50 on RmtA was 160 µM.
As for `O=C(O)c1ccc(Nc2nc(Cl)nc(Cl)n2)cc1`, on RmtA, the IC50 was found to be 406 µM.
As to `Nc1c(Br)cc(C(=O)O)c(-c2c3cc(Br)c(=O)c(Br)c-3oc3c(Br)c(O)c(Br)cc23)c1Br`, the values for the IC50 (on RmtA; in assay [1]) were 22.3 µM and 4.8 µM, respectively.
For the molecule `O=C(Nc1ccccc1)Nc1ccc2c(O)cc(S(=O)(=O)O)cc2c1`, the IC50 on RmtA was found to be 1080 µM.
Same read-out and setting: with `O=C(Nc1ccc2c(O)cc(S(=O)(=O)O)cc2c1)Nc1ccc2c(O)cc(S(=O)(=O)O)cc2c1` the figure was 88 µM; with `COc1cc(/C=C/C(=O)CC(=O)/C=C/c2ccc(O)c(OC)c2)ccc1O` [CURCUMIN], 1100 µM.
In the case of `CC1=C(CN(CC(=O)O)CC(=O)O)C(=O)C(C(C)C)=C/C1=C(\c1ccccc1S(=O)(=O)O)c1cc(C(C)C)c(O)c(CN(CC(=O)O)CC(=O)O)c1C`, the IC50 (on RmtA; in assay [1]) was greater than 34 µM throughout.
On to `Nc1ccc2c(O)cc(S(=O)(=O)O)cc2c1`, for which the IC50 at RmtA stood at 590 µM.
